Assay results from patent publication US12565504B2, “Spirocyclic O-glycoprotein-2-acetamido-2-deoxy-3-d-glucopyranosidase inhibitors” (BIOGEN MA INC., priority 2019, dated 2026).

Experiments:
[1] = target: Recombinant full length human OGA enzyme (Homo sapiens (Human), UniProt O60502); experiment: OGA Enzyme Inhibition Biochemical Assay; settings: 1 nM OGA, 100 μM 4-MUGlcNAc, 90 minutes, pH 6.4
Experimental: Recombinant full length human OGA enzyme was purchased from Origene. 4-MUGlcNAc substrate was purchased from Sigma. All other reagents were purchased from Sigma or Fisher. Assay buffer consists of the McIlvaine buffer system, pH 6.4 (0.2M Na2HPO4 mixed with 0.1M citric acid) and 0.01% BSA. […] Reactions were incubated for 90 minutes at room temperature and quenched with 40 μl of 3M glycine, pH 10 and read on a Perkin Elmer Envision plate reader (Ex: 355 nm/Em: 460 nm). Compounds were tested with a 10-point dose-response starting from 20 μM with a 4-fold dilution. Data was fit using GraphPad Prism using a 4-parameter fit with variable slope.

OGA (S400 O-GLCNAC) = OGA (S400 O-GLCNAC) (Homo sapiens (Human), UniProt O60502); experiment: Cellular OGA-Tau MSD Assay; format: cell-based; settings: HEK-293T cells transfected with OGT and Tau-V5; Tau-S400-GlcNAc MSD readout
Experimental: HEK-293T cells were transfected with OGT and Tau-V5 plasmids using Lipofectamine and grown overnight. Next day, the cells were collected and re-plated at 1×10^5 cells per well in 96 well plates. Cells were incubated for 4 hr at 37° C., before compounds were added at 1 uM, with 3-fold dilutions in a 10-point titration. Cell plates were incubated with compounds overnight at 37° C. The next day media was removed from wells by gentle aspiration and 120 ul of 1× Cell Lysis buffer mixed with protease and phosphatase cocktail added to each well. A freeze thaw was performed at −80° C., then mixed before transferring 50 μl to MSD plates coated with V5-tag antibody to capture Tau. MSD Plates were incubated overnight at 4° C., on a plate shaker. The following day, plates were washed and incubated with Tau-S400-GlcNAc antibody for 2 hr and then developed with rabbit Sulfo-tag antibody. Final read out was carried out on an MSD 600 reader. The data was analyzed using Graph Pad or Genedata, the data was normalized and % activity versus log of compound concentration was plotted. The ICso values were obtained from a 4 parameter fit.

Chain of OGA (S400 O-GLCNAC) (O60502 whole entry): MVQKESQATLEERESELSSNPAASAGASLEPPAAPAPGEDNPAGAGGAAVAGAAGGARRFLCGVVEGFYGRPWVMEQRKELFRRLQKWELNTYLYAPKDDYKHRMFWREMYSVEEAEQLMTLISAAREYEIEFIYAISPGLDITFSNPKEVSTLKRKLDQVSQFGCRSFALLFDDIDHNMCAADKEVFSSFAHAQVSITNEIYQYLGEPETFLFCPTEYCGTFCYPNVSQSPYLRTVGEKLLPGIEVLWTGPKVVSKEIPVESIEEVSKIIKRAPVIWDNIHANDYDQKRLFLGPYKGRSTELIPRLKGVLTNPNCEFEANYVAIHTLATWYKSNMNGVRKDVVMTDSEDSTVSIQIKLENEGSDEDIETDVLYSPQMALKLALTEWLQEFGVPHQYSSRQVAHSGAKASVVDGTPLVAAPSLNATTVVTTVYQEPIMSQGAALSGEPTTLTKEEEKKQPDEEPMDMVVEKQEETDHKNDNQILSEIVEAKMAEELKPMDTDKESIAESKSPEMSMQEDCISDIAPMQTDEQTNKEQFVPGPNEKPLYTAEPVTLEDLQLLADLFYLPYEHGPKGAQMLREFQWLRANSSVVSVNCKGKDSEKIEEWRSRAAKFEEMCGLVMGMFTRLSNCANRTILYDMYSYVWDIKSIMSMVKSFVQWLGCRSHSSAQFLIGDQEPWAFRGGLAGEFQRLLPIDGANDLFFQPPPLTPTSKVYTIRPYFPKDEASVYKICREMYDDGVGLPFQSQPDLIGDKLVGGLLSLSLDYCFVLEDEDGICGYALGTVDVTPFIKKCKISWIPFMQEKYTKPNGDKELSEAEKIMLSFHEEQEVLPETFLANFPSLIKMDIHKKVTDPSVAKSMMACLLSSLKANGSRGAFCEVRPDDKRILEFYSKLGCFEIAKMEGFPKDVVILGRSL
Chain of Recombinant full length human OGA enzyme (O60502 whole entry): as above

| Structure (SMILES) | IC50 [1] [nM] | IC50 (OGA (S400 O-GLCNAC)) [nM] |
| --- | --- | --- |
| CC(=O)Nc1ncc(CN2CC3(C[C@@H]2C)OCc2cccnc23)s1 (stereo partly drawn) [Example 62, N-(5-(((5′S)-5′-Methyl-5H-spiro[furo[3,4-b]pyridine-7,3′-pyrrolidin]-1′-yl)methyl)thiazol-2-yl)acetamide] | 44 | 73 |
| CC(=O)Nc1ncc(CN2CC3(C[C@@H]2C)OCc2ncccc23)s1 (stereo partly drawn) [Example 80, N-(5-(((5′S)-5′-Methyl-7H-spiro[furo[3,4-b]pyridine-5,3′-pyrrolidin]-1′-yl)methyl)thiazol-2-yl)acetamide] | 49 | 15 |
| CC(=O)Nc1nc(F)c(CN2CCCC3(C2)OCc2cccnc23)s1 (stereo not shown) [Example 61, N-(5-((5H-Spiro[furo[3,4-b]pyridine-7,3′-piperidin]-1′-yl)methyl)-4-fluorothiazol-2-yl)acetamide] | 29 | – |
| CC(=O)Nc1nc(F)c(CN2CC3(C[C@@H]2C)OCc2ccccc23)s1 (stereo partly drawn) [Example 58, N-(4-Fluoro-5-(((5′S)-5′-methyl-3H-spiro[isobenzofuran-1,3′-pyrrolidin]-1′-yl)methyl)thiazol-2-yl)acetamide] | 4.2 | 14 |
| CC(=O)Nc1nc(F)c(CN2C[C@@]3(Cc4cc(C(F)(F)F)ncc4O3)C[C@@H]2C)s1 [Example 21, N-(4-Fluoro-5-(((2R,5′S)-5′-methyl-5-(trifluoromethyl)-3H-spiro[furo[2,3-c]pyridine-2,3′-pyrrolidin]-1′-yl)methyl)thiazol-2-yl)acetamide] | 7 | 6 |
| CC(=O)Nc1nc(F)c(CN2CC3(C[C@@H]2C)OCc2ncccc23)s1 (stereo partly drawn) [Example 79, N-(4-Fluoro-5-(((5′S)-5′-methyl-7H-spiro[furo[3,4-b]pyridine-5,3′-pyrrolidin]-1′-yl)methyl)thiazol-2-yl)acetamide] | – | 5 |
| CC(=O)Nc1nc(F)c(CN2CC3(Cc4nc(O)cnc4O3)C[C@@H]2C)s1 (stereo partly drawn) [Example 51, N-(4-fluoro-5-(((5′S)-2-hydroxy-5′-methyl-7H-spiro[furo[2,3-b]pyrazine-6,3′-pyrrolidin]-1′-yl)methyl)thiazol-2-yl)acetamide] | 91 | 59 |
| CCOc1cc2c(cn1)O[C@]1(C2)C[C@H](C)N(Cc2sc(NC(C)=O)nc2F)C1 [Example 46, N-(5-(((2R,5′S)-5-Ethoxy-5′-methyl-3H-spiro[furo[2,3-c]pyridine-2,3′-pyrrolidin]-1′-yl)methyl)-4-fluorothiazol-2-yl)acetamide] | < 1 | 3 |
| CC(=O)Nc1ncc(CN2C[C@@]3(C[C@@H]2C)OCc2cnccc23)s1 (single isomer, unassigned) [Example 65-a] | 24 | – |
| CC(=O)Nc1nc(F)c(CN2CCC3(Cc4ccncc4O3)C2)s1 (stereo not shown) [Example 90, N-(5-((3H-spiro[furo[2,3-c]pyridine-2,3′-pyrrolidin]-1′-yl)methyl)-4-fluorothiazol-2-yl)acetamide] | 120 | – |
| CC(=O)Nc1ncc(CN2C[C@@]3(Cc4cc(C5CC5)ncc4O3)C[C@@H]2C)s1 [Example 25, N-(5-(((2R,5′S)-5-Cyclopropyl-5′-methyl-3H-spiro[furo[2,3-c]pyridine-2,3′-pyrrolidin]-1′-yl)methyl)thiazol-2-yl)acetamide] | 6 | 23 |
| CC(=O)Nc1ncc(CN2C[C@]3(C[C@@H]2C)OCc2ccncc23)s1 [Example 71-b, N-(5-(((3R,5′S)-5′-methyl-1H-spiro[furo[3,4-c]pyridine-3,3′-pyrrolidin]-1′-yl)methyl)thiazol-2-yl)acetamide] | 260 | – |
| CC(=O)Nc1ncc(CN2CCCC3(C2)OCc2c3cc[nH]c2=O)s1 (stereo not shown) [Example 87, N-(5-((4-Oxo-4,5-dihydro-3H-spiro[furo[3,4-c]pyridine-1,3′-piperidin]-1′-yl)methyl)thiazol-2-yl)acetamide] | 35 | 54.3 |
| CC(=O)Nc1ncc(CN2C[C@@]3(Cc4cc(N5CCN(C)CC5)ncc4O3)C[C@@H]2C)s1 [Example 44, N-(5-(((2R,5′S)-5′-Methyl-5-(4-methylpiperazin-1-yl)-3H-spiro[furo[2,3-c]pyridine-2,3′-pyrrolidin]-1′-yl)methyl)thiazol-2-yl)acetamide] | < 1 | 13 |
| CC(=O)Nc1ncc(CN2CCCC3(C2)OCc2cncnc23)s1 (stereo not shown) [Example 89, N-(5-((5H-Spiro[furo[3,4-d]pyrimidine-7,3′-piperidin]-1′-yl)methyl)thiazol-2-yl)acetamide] | 67.9 | 84.6 |
| CC(=O)Nc1nc(F)c(CN2CCC3(Cc4cnccc4O3)C2)s1 (stereo not shown) [Example 12, N-(5-((3H-Spiro[furo[3,2-c]pyridine-2,3′-pyrrolidin]-1′-yl)methyl)-4-fluorothiazol-2-yl)acetamide] | 35 | 93 |

| Structure (SMILES) | IC50 [1] [nM] | IC50 (OGA (S400 O-GLCNAC)) [nM] |
| --- | --- | --- |
| CC(=O)Nc1nc(F)c(CN2CCCC3(C2)OCc2cnccc23)s1 (racemic) [Example 69, N-(5-((3H-Spiro[furo[3,4-c]pyridine-1,3′-piperidin]-1′-yl)methyl)-4-fluorothiazol-2-yl)acetamide] | 3.2 | 13.8 |
| CC(=O)Nc1nc(F)c(CN2C[C@@]3(Cc4cc(N(C)C)ncc4O3)C[C@@H]2C)s1 [Example 28, N-(5-(((2R,5′S)-5-(Dimethylamino)-5′-methyl-3H-spiro[furo[2,3-c]pyridine-2,3′-pyrrolidin]-1′-yl)methyl)-4-fluorothiazol-2-yl)acetamide] | < 1 | 1 |
| CC(=O)Nc1ncc(CN2CCC3(C2)OCc2cnccc23)s1 (stereo not shown) [Example 66, N-(5-((3H-Spiro[furo[3,4-c]pyridine-1,3′-pyrrolidin]-1′-yl)methyl)thiazol-2-yl)acetamide] | 210 | 794 |
| CC(=O)Nc1nc(F)c(CN2CCC3(Cc4cc(Cl)ccc4O3)C2)s1 (stereo not shown) [Example 6, N-(5-((5-Chloro-3H-spiro[benzofuran-2,3′-pyrrolidin]-1′-yl)methyl)-4-fluorothiazol-2-yl)acetamide] | 140 | – |
| CC(=O)Nc1nc(F)c(CN2C[C@]3(C[C@@H]2C)OCc2ccncc23)s1 (single isomer, unassigned) [Example 72-b] | 110 | – |
| CC(=O)Nc1nc(F)c(CN2CCC[C@@]3(C2)OCc2cnccc23)s1 (single isomer, unassigned) [Example 70-a] | 1.4 | 8.4 |
| CC(=O)Nc1nc(F)c(CN2C[C@@]3(Cc4ccccc4O3)C[C@@H]2C)s1 [Example 1, N-(4-Fluoro-5-(((2R,5′S)-5′-methyl-3H-spiro[benzofuran-2,3′-pyrrolidin]-1′-yl)methyl)thiazol-2-yl)acetamide] | 15 | 865 |
| CC(=O)Nc1nc(F)c(CN2CCCC3(C2)OCc2cncnc23)s1 (stereo not shown) [Example 88, N-(5-((5H-Spiro[furo[3,4-d]pyrimidine-7,3′-piperidin]-1′-yl)methyl)-4-fluorothiazol-2-yl)acetamide] | 20.8 | 90.3 |
| CC(=O)Nc1nc(F)c(CN2CCC3(Cc4cccnc4O3)C2)s1 (stereo not shown) [Example 15, N-(5-((3H-Spiro[furo[2,3-b]pyridine-2,3′-pyrrolidin]-1′-yl)methyl)-4-fluorothiazol-2-yl)acetamide] | 1700 | – |
| CC(=O)Nc1ncc(CN2CCC3(Cc4cc(Cl)ccc4O3)C2)s1 (stereo not shown) [Example 5, N-(5-((5-Chloro-3H-spiro[benzofuran-2,3′-pyrrolidin]-1′-yl)methyl)thiazol-2-yl)acetamide] | 150 | – |
| CC(=O)Nc1ncc(CN2CCC3(Cc4cccnc4O3)C2)s1 (stereo not shown) [Example 14, N-(5-((3H-Spiro[furo[2,3-b]pyridine-2,3′-pyrrolidin]-1′-yl)methyl)thiazol-2-yl)acetamide] | 3800 | – |
| CC(=O)Nc1ncc(CN2C[C@]3(C[C@@H]2C)OCc2cnccc23)s1 (single isomer, unassigned) [Example 65-b] | 440 | – |
| COc1nccc2c1COC21C[C@H](C)N(Cc2sc(NC(C)=O)nc2F)C1 (stereo partly drawn) [Example 77, N-(4-Fluoro-5-(((5′S)-4-methoxy-5′-methyl-3H-spiro[furo[3,4-c]pyridine-1,3′-pyrrolidin]-1′-yl)methyl)thiazol-2-yl)acetamide] | – | 7 |
| CC(=O)Nc1nc(F)c(CN2C[C@]3(C[C@@H]2C)OCc2cnccc23)s1 (single isomer, unassigned) [Example 64-b] | 170 | – |
| CC(=O)Nc1nc(F)c(CN2C[C@@]3(C[C@@H]2C)OCc2ccncc23)s1 (single isomer, unassigned) [Example 72-a] | 30 | – |
| CC(=O)Nc1ncc(CN2C[C@@]3(C[C@@H]2C)OCc2ccncc23)s1 [Example 71-a, N-(5-(((3S,5′S)-5′-Methyl-1H-spiro[furo[3,4-c]pyridine-3,3′-pyrrolidin]-1′-yl)methyl)thiazol-2-yl)acetamide] | 150 | – |
